The text below walks through data of US4081548A, “Antibiotics” (Merck & Co., Inc., priority 1976, dated 1978).

Common to all, as to assay type: cell-based
Assay [1] relates to Staphylococcus aureus ATCC 6538P. The experiment in a line: disc-diffusion assay of antibacterial activity (5 ml plates). The settings on record: estimated or calculated potency; one unit = same inhibition as 1 μg. of cephalothin/ml. As for the experimental part:
Assays of antibacterial activity are run according to the following disc-diffusion procedure unless otherwise indicated. The assay plates are prepared in the following manner. An overnight growth of the assay organism, Staphylococcus aureus ATCC 6538P, in nutrient broth plus 0.2% yeast extract is diluted with nutrient broth plus 0.2% yeast extract to a suspension having 55% transmittance at a wavelength of 660 mμ. This suspension is added to Difco nutrient agar supplemented with 2.0 g./l. Difco yeast extract, at 47° C. to 48° C., to make a composition containing 33.2 ml. of the suspension per liter of agar. Five ml. of this suspension is poured into petri dishes of 85 mm. diameter, and these plates are chilled and held at 4° C. until used (5 day maximum).
Samples of the antibiotic to be assayed are diluted to an appropriate concentration in phosphate buffer at pH 7. Filter-paper discs, 0.5-inch in diameter, are dipped into the test solution and placed on the surface of the assay plate; two discs for each sample are normally placed on one plate opposite to one another. The plates are incubated overnight at 37° C. and the zone of inhibition is measured as mm. diameter. The zone of inhibition measured in mm. determines relative potencies or, when compared with a purified reference standard such as cephalothin, the potency of antibiotic in units/ml. The unit of activity reported in Examples 4 through 7 is based on cephalothin standard solutions of 8, 4, 2 and 1 μg./ml. One unit is defined as the amount which calculates to produce the same inhibition as 1 μg. of cephalothin/ml. that zone of inhibition being between 16 and 21 mm. diameter.

Assay [2] has as its system Streptococcus faecalis 755. The experiment in a line: Bauer-Kirby disc diffusion (2 mm agar depth), zone of inhibition, Table 1. The settings on record: Enterococcus faecalis, preparation III, 6.6 μg antibiotic/disc, strain resistance: --, read-out: diameter of the zone of inhibition. From the text: (§1) Thienamycin is further characterized by the following antibiotic spectrum profile. The test employs the Bauer-Kirby disc diffusion method modified only in respect to the 2 mm. agar depth employed here.

The test system of a further assay is Klebsiella 2921. Described as above. The settings on record: preparation III, 6.6 μg antibiotic/disc, strain resistance: P (penicillins), read-out: diameter of the zone of inhibition.
Source text: as §1

The next assay has as its system Escherichia coli 2964. Described as above. The settings on record: preparation III, 6.6 μg antibiotic/disc, strain resistance: P, C (penicillins, cephalosporins), read-out: diameter of the zone of inhibition.
Source text: as §1

Another assay deals with Proteus morganii 2833. The description is as above. Conditions: Morganella morganii, preparation III, 6.6 μg antibiotic/disc, strain resistance: P, C (penicillins, cephalosporins), read-out: diameter of the zone of inhibition.
Source text: as §1

For the next assay, the system named is Serratia 2840. Described as above. Conditions: preparation III, 6.6 μg antibiotic/disc, strain resistance: P, C (penicillins, cephalosporins), read-out: diameter of the zone of inhibition.
Source text: as §1

The test system of assay [3] is Enterobacter cloacae 2647. The description is as above. Conditions: preparation III, 6.6 μg antibiotic/disc, strain resistance: --, read-out: diameter of the zone of inhibition.
Source text: as §1

Assay [4] has as its system Staphylococcus aureus 2985. The description is as above. The settings on record: preparation III, 6.6 μg antibiotic/disc, strain resistance: --, read-out: diameter of the zone of inhibition.
Source text: as §1

The test system of assay [5] is Staphylococcus aureus 2314. The description is as above. The settings on record: preparation III, 6.6 μg antibiotic/disc, strain resistance: P (penicillins), read-out: diameter of the zone of inhibition.
Source text: as §1

A further assay has as its system Proteus mirabilis 2830. Described as above. Conditions: preparation III, 6.6 μg antibiotic/disc, strain resistance: P, C (penicillins, cephalosporins), read-out: diameter of the zone of inhibition.
Source text: as §1

The subject of a further assay is Bacillus subtilis 964. The assay is described as above. Conditions: preparation III, 6.6 μg antibiotic/disc, strain resistance: --, read-out: diameter of the zone of inhibition.
Source text: as §1

Another assay relates to Escherichia coli 2482. Described as above. The settings on record: preparation III, 6.6 μg antibiotic/disc, strain resistance: --, read-out: diameter of the zone of inhibition.
Source text: as §1

Assay [6] relates to Pseudomonas aeruginosa 3210. The description is as above. Conditions: preparation III, 6.6 μg antibiotic/disc, strain resistance: P, C (penicillins, cephalosporins), read-out: diameter of the zone of inhibition.
Source text: as §1

A further assay has as its system Klebsiella 2922. The description is as above. Conditions: preparation III, 6.6 μg antibiotic/disc, strain resistance: P (penicillins), read-out: diameter of the zone of inhibition.
Source text: as §1

Assay [7] deals with Enterobacter cloacae 2646. The description is as above. Conditions: preparation III, 6.6 μg antibiotic/disc, strain resistance: P, C (penicillins, cephalosporins), read-out: diameter of the zone of inhibition.
Source text: as §1

Assay [8] deals with Pseudomonas aeruginosa 2824. The assay is described as above. The settings on record: preparation III, 6.6 μg antibiotic/disc, strain resistance: P, C (penicillins, cephalosporins), read-out: diameter of the zone of inhibition.
Source text: as §1

Another assay relates to Escherichia coli 2017. The description is as above. The settings on record: preparation III, 6.6 μg antibiotic/disc, strain resistance: --, read-out: diameter of the zone of inhibition.
Source text: as §1

Assay [9] relates to Pseudomonas aeruginosa 2616. Described as above. Conditions: preparation III, 6.6 μg antibiotic/disc, strain resistance: P, C (penicillins, cephalosporins), read-out: diameter of the zone of inhibition.
Source text: as §1

With `C[C@@H](O)[C@H]1C(=O)N2C(C(=O)O)=C(SCCN)C[C@H]12` [III, thienamycin], the “potency (estimated / calculated)” value in assay [1] was ~31,000 units/mg. Moreover, the zone of inhibition at 6.6 µg/disc is 24 mm in assay [2]; 25 mm in the assay with Klebsiella 2921; 27 mm in the assay on Escherichia coli 2964; 20 mm with Proteus morganii 2833; 23 mm with Serratia 2840; 27.5 mm in assay [3]. Further, the zone of inhibition at 6.6 µg/disc amounted to 38 mm in assay [4]; 38 mm in assay [5]; 21 mm in the assay with Proteus mirabilis 2830; 46 mm in the assay on Bacillus subtilis 964; 27 mm in the assay with Escherichia coli 2482; 25 mm in [6]. The zone of inhibition at 6.6 µg/disc in the assay with Klebsiella 2922 was 25 mm; in assay [7], 25 mm; in [8], 30 mm; in the assay on Escherichia coli 2017 it was 28 mm; in assay [9], 20.5 mm.

As a reminder, the zone of inhibition is the size of the clear area around the sample on an inoculated plate.
